Consider 20 substances from US20070269892A1, “FORMULATIONS FOR INTRACELLULAR DELIVERY dsRNA” (NASTECH PHARMACEUTICAL COMPANY INC., priority 2006, published 2007).

PEG10k = poly(ethylene glycol) of 10 kD conjugated to the peptide; PEG2k = PEG 2k (PEG2k-maleimide); Mal = maleimide

For one data set, the system named is Lac-Z. As to conditions: study 2, 100 nM, N/P=2, 0.1% pluronic F127.
For data set [1], the system named is 9L/LacZ cells. In words: Cellular uptake of peptide/siRNA condensates (fluorescence intensity). The format is cell-based. As to conditions: study 2; NT peptides at 100 nM, N/P=2 with pluronic F127; PN0593/PN0594 at varying N/P. As for the experimental part: Cells are plated per well in 24-well plates the day before transfection in complete media. The siRNA is labeled, for example with Cy-5 conjugate. The peptide/siRNA condensates are added to cells previously washed with phosphate buffered saline (PBS). Cells were transfected for three hours at 37° C., 5% CO2. Cells were washed with PBS, treated with trypsin, and then analyzed by flow cytometry.
siRNA cell-uptake was measured by the intensity of intracellular Cy5 fluorescence. The cell-uptake assay is used to determine the percentage of cells that contain the Cy5-conjugated siRNA. Mean Fluorescence Intensity (MFI) is used to determine the relative mean quantity of Cy5-conjugated siRNA that entered the cells.

The nature of data set [2]: Particle size analysis of siRNA/peptide polymer formulations. The format is physicochemical. The settings on record: 24 hours after formulation, siRNA 0.8 μM/peptide polymers, N/P=2. The protocol: Formulations for particle size analysis were prepared in Hepes 11 mM pH7.4, at a siRNA concentration of 0.8 uM (11.59 μg/ml) and then diluted into OPTI-MEM. For nanoparticle size analysis of siRNA/peptide polymers, we used 1 ug RNA/0.8 nmols peptide polymer (based on monomer). The total vol of sample was 1 ml containing 50 ug RNA and 40 nmol peptide polymer in Hepes buffer mannitol (5 mM HEPES, 5% mannitol, pH 7.5) (Filter). The particle size analysis was performed on a Zeta Plus/Zeta potential analyzer.
Briefly, buffer was added first and then concentrated siRNA was added followed by votexing for 3 seconds (at full speed). The peptide polymer was then added followed by votexing for an additional 6 seconds (at full speed). Formulations were maintained at room temperature for 10 minutes. In a 96-well plate format, formulations were then diluted 20× for a final siRNA concentration of 10 nM (6.25 μl into 118.75 μl of OPTI-MEM) or 2× for a final concentration of 100 nM (62.5 μl of formulation into 62.5 μl OPTI-MEM). After dilution, formulations were mixed gently. For positive control preparation, 0.5 μl of HiPerFect was diluted into 12.5 μl of OPTI-MEM and 0.5 μl of siRNA into 12.5 μl of OPTI-MEM, respectively; and incubated at room temperature for 5 minutes, and then combined diluted siRNA and diluted HiPerFect, and incubated at room temperature for 15 minutes. A formulation pH of about 7.4 was chosen in order to minimize reduction of peptide that is polymerized through cycteine disulfide bonds.
Particle size was measured 24 hours after formulation of siRNA 0.8 μM/peptide polymers (N/P=2). […] In summary, all formulation tested in this study formed particles at about or less than about 100 nm.

Data set [3] concerns 9L/LacZ cells. The experiment in a line: Micro BCA total protein assay (toxicity). It counts as cell-based. As to conditions: study 1, 100 nM, N/P=2.
Protocol: For study 1 and 2, 7,000-10,000 9L/LacZ cells (passage 5-25) were plated in cell culture media in each well of a 96-well plate and grown overnight. Cells (in 75 μl of media) were transfected by adding 25 μl of each formulation to be tested; 4 hours thereafter 100 μl of fresh media is added to each well, which media is replaced with 100 μl of fresh media approximately 16 hours later. […] Cells were harvested 3 days after transfection by the addition of 50 μl of lysis buffer for β-galactosidase and Micro BCA assays.
For study 1 and 2, a Micro BCA assay (Pierce Chemical Company, Rockford, Ill.) was performed in order to measure total protein concentration, as follows: 9L/LacZ cells were washed 1× with phosphate buffered saline (PBS). Then, 50 μl of M-PER® Reagent was added to each well and incubated for 15 minutes at room temperature. After incubation, 10 μl of each lysate was transferred to a new well (using a 96-well plate format) containing 140 μl of dH20, and then 150 μl of Micro BCA working solution was added. The plates were covered, incubated at 37° C. for 2 hours and then the absorbance measured at 562 nm was recorded.
The next data set deals with G1498 siRNA. The experiment in a line: SYBR-gold dye displacement assay of peptide binding to siRNA, with Scatchard analysis. As to conditions: for Bmax (Scatchard Analysis) / Kd (Scatchard Analysis) / Max Bound siRNA: siRNA 10 μg/mL; for Max Bound siRNA: peptide:siRNA charge ratio 0.05 to 10; for Relative affinity of binding to siRNA: comparison within Table 7. The protocol:
Peptides (see Table 4, Example 2) are suspended in Hyclone nuclease free water. Test dilutions of this peptide stock are made in sterile, Nuclease-free eppendorf tubes at a 2× final concentration and buffered to pH 7.4 with 20 mM Phosphate. Nine concentrations of each peptide were made, corresponding to charge ratios of approximately 0.05 to 10. The molar ratios and μg/mL and μM concentrations of each peptide corresponding to these charge ratios are detailed in Tables 1, 2 and 3.
SYBR-gold nucleic acid binding dye stock, a 10,000× concentrate, is supplied by Invitrogen (Carlsbad, Calif.) and stored at −20° C. The concentrate is allowed to equilibrate to room temperature before diluting 1 to 100 in Hyclone nuclease free water. This is then diluted 1 to 10 in the experimental plate for a final concentrate of 10× for the assay. This is the optimal dilution to achieve linear binding to siRNA duplex at a concentration range of up to 50 μg/mL concentration. For higher concentrations, the amount of dye to use may be further optimized.
Samples are mixed directly in the 384 well analysis plate. First 5 μL SYBR-gold dye is pipetted into each well with a multichannel pipette, touching the tip to the bottom of the well to draw out the solution completely. Then 22.5 μL of 2× peptide solution is added with a single channel pipette. Since SYBR-gold will not bind to peptide (and peptide samples without siRNA will verify this assumption), there will be no bleaching effect on fluorescence. Finally, 22.5 μL of 2× siRNA is added with a multichannel pipette. The plate is covered immediately with foil and tapped gently to mix and draw down any droplets on the side of the well.
Fluorescence is measured using the SpectraMax fluorescent plate reader from Molecular Devices (Sunnyvale, Calif.). Plate settings include shaking before reading, one read per well, with excitation wavelength of 495 nm and emission wavelength of 537 nm. The plate is read within 30 minutes of the addition of the siRNA.
Scatchard Plot is a plot of peptide binding ([peptide]bound/[peptide]free) vs. [peptide]bound. The slope of the linear regression of this plot is −1/Kd and Bmax is the […]. Since the concentration of free and bound peptide cannot be measured directly, indirect measurements of siRNA is used for the calculation. Free siRNA is determined from measured fluorescence using the standard curve. Bound siRNA is determined from the standard curve by mass balance from the known initial siRNA concentration (10 μg/mL). Bound peptide is calculated from bound siRNA by assuming the (siRNA:Peptide) bound molar ratio is equal to the (siRNA:Peptide) charge ratio for a single molecule pairing. From this calculated bound peptide amount, the free peptide is calculated by mass balance.
The relative binding of various peptides to siRNA via a rapid screen is assessed by indirect measurement of the displacement of SYBR-gold nucleic acid binding dye. A buffered mixture of siRNA, peptide and SYBR-gold is prepared in the measurement plate in duplicate such that the peptide and SYBR-gold dye undergoes simultaneous competitive binding of the siRNA. The concentration of siRNA is fixed at 10 μg/mL and is combined with a titration of each peptide ranging in a concentration that corresponds to a peptide:siRNA charge ratio between 0.05 to 10. Since SYBR-gold dye only fluoresces when bound to siRNA, peptide binding to the siRNA is inhibits binding of the dye and consequently reduces the fluorescence. Therefore, the amount of fluorescence correlates inversely to the binding of the peptide to the siRNA.

Data set [4] is described as follows: Glutathione (GSH) mediated siRNA release from disulfide cross-linked peptide siRNA particles. It counts as physicochemical. The settings on record: 5 ug siRNA/4 nmols peptide polymer, GSH 0.5 mg. As for the experimental part:
In a separate experiment, glutathione (GSH) was added to disulfide cross-linked peptide siRNA particles (which may be referred to as nanoparticles) in order to detect siRNA release from disulfide cross-linked peptide siRNA condensates. The reduction of the peptide polymers, leading to dissociation and release of siRNA was monitored by continues measurement of the fluorescence intensity of […] over 15 minutes. Briefly, siRNA nanoparticles (N/P: 5 ug siRNA/4 nmols peptide polymer) were treated with reducing agent glutathione (GSH, 0.5 mg scale) and thiazole orange (0.1 ug) in 1 ml sample in HBM buffer pH 7.5. The fluorescence intensity was monitored over 15 min at Ex 498 nm and Emi 546 nm. Samples tested were (1) siRNA and Thiazole orange (No peptide polymer, No GSH), (2) Peptide polymer, siRNA and Thiazole orange (No GSH), and (3) Peptide polymer, siRNA, Thiazole orange and GSH.

Protocol for Lac-Z: The LacZ assay was performed three days post-transfection. Cells were rinsed with phosphate buffers saline (PBS) after removal of cell media. The PBS was aspirated and the cells were lysed by the addition of 50 μl M-PER™ to each well and incubating the cells for 15 minutes while gently shaking. Following cell lysis, 10 μl of cell lysate was removed from each well to perform a total protein assay (micro BCA kit, Pierce). In order to measure LacZ activity, 30 μl of cell lysate was transferred to a new plate and 30 μl of ALL-IN-ONE™ beta-galactosidase (β-gal) was added to each well of the new plate. The new plate was covered to avoid light exposure and incubated for 30 minutes at 37° C. Following the 30 minute incubation, the absorbance was read at 405 nm with a μQuant plate reader (Bio-Trek Instrument) to measure LacZ activity.
For study 1 and 2, 7,000-10,000 9L/LacZ cells (passage 5-25) were plated in cell culture media in each well of a 96-well plate and grown overnight. […]
For study 1 and 2, a Micro BCA assay (Pierce Chemical Company, Rockford, Ill.) was performed in order to measure total protein concentration, as follows: 9L/LacZ cells were washed 1× with phosphate buffered saline (PBS). […] The plates were covered, incubated at 37° C. for 2 hours and then the absorbance measured at 562 nm was recorded. […]

Consider Cys-Trp-(Lys)4-Cys (CWKKKKC) [NT-18], for which the “Knockdown of gene expression” value with Lac-Z was “about 20%”. In the data set on 9L/LacZ cells [1], the Uptake entry was “good uptake”. Moreover, the Particle size entry in data set [2] is recorded as “about 105 nm”. The “Toxicity (total protein expression)” value in the data set on 9L/LacZ cells [3] is recorded as “no apparent toxicity”.
With “KKKKKKKKKKKKKKKKKK [PN0858-1, Ac-(Lys)18-amide]”, in the data set on G1498 siRNA, the “Bmax (Scatchard Analysis)” value stood at 0.828 μMbound/μMfree, the “Kd (Scatchard Analysis)” value was 0.348 µM⁻¹ and the “Max Bound siRNA” value is reported as 66% mole %.
With “Cys-Trp-(Lys)4-Cys-(Lys)4-Cys (CWKKKKCKKKKC) [NT-22]”, the Particle size result in data set [2] was “about 90.8 nm”.
As to PEG10k-Mal-(Lys)30-amide [PN0907-2], the “Max Bound siRNA” value with G1498 siRNA is on record as 58% mole %.
As to “NH2-PLKPLKPLKPLKPLKPLK-amide (H-PLKPLKPLKPLKPLKPLK-NH2) [PN0594]”, the Uptake result in the data set on 9L/LacZ cells [1] is “very low”.
As for KKKKKKKKK [PN0860-2, Ac-(Lys)9-amide], in the data set with G1498 siRNA, the “Bmax (Scatchard Analysis)” value turned out to be 0.379 μMbound/μMfree, the “Kd (Scatchard Analysis)” value turned out to be 0.204 µM⁻¹ and the “Max Bound siRNA” value was 43% mole %.
Consider RRRRRRRRR [PN0861-2, Ac-(Arg)9-amide], for which, in the data set on G1498 siRNA, the “Relative affinity of binding to siRNA” value was “greatest affinity”, the “Bmax (Scatchard Analysis)” value came to 0.198 μMbound/μMfree, the “Kd (Scatchard Analysis)” value stood at 0.771 µM⁻¹ and the “Max Bound siRNA” value is reported as 68% mole %.
As for “NH2-VRLPPPVRLPPPVRLPPP-amide (H-VRLPPPVRLPPPVRLPPP-NH2) [PN0593]”, in the data set with 9L/LacZ cells [1], the Uptake result is listed as “very low”.
As to “RRRRRRRRRRRRRRRRRR [PN0859-2, Ac-(Arg)18-amide]”, in the data set with G1498 siRNA, the “Relative affinity of binding to siRNA” value was “greatest affinity”, the “Bmax (Scatchard Analysis)” value was determined as 0.495 μMbound/μMfree, the “Kd (Scatchard Analysis)” value worked out at 0.929 µM⁻¹ and the “Max Bound siRNA” value was 64% mole %.
Consider “Cys-Trp-(Lys)4-His-(Lys)4-Cys (CWKKKKHKKKKC) [NT-23]”, for which, in data set [2], the Particle size entry is given as “about 65.7 nm”.
Regarding “PEG2k-Mal-(Lys)10-amide ({PEG2k-Mal}-KKKKKKKKKK-NH2) [PN0933-2]”, in the data set on G1498 siRNA, the “Bmax (Scatchard Analysis)” value turned out to be 0.241 μMbound/μMfree, the “Kd (Scatchard Analysis)” value came out at 0.326 µM⁻¹ and the “Max Bound siRNA” value came to 39% mole %.
“Cys-Trp-(Lys)10-Cys (CWKKKKKKKKKKC) [NT-21]”: the “Reduction of peptide polymer by GSH with siRNA release” value in data set [4] is “exception”. In addition, the Uptake result in the data set on 9L/LacZ cells [1] was “good uptake”. For the same substance, in data set [2], the Particle size entry was “about 55.7 nm”.
Regarding “Cys-Trp-(Lys)8-Cys (CWKKKKKKKKC) [NT-20]”, in the data set on 9L/LacZ cells [1], the Uptake entry is on record as “good uptake”. Besides, in data set [2], the Particle size entry is “about 67.6 nm”.
As to “Cys-Trp-His-(Lys)4-His-(Lys)4-Cys (CWHKKKKHKKKKC) [NT-24]”, the Particle size result in data set [2] is listed as “about 82.2 nm”. In the data set on 9L/LacZ cells [3], the “Toxicity (total protein expression)” value is “no apparent toxicity”.
Consider “KKKKKKKKKKKKKKKKKKKK [PN0924-1, NH2-(Lys)20-amide]”, for which, in the data set on G1498 siRNA, the “Bmax (Scatchard Analysis)” value was 0.883 μMbound/μMfree, the “Kd (Scatchard Analysis)” value worked out at 0.426 µM⁻¹ and the “Max Bound siRNA” value was found to be 71% mole %.
Turning to PEG2k-Mal-(Lys)25-amide [PN0925-2], in the data set with G1498 siRNA, the “Bmax (Scatchard Analysis)” value turned out to be 2.077 μMbound/μMfree, the “Kd (Scatchard Analysis)” value came out at 0.150 µM⁻¹ and the “Max Bound siRNA” value worked out at 59% mole %.
Turning to “PEG2k-Mal-(Lys)15-amide ({PEG2k-Mal}-KKKKKKKKKKKKKKK-NH2) [PN0930-2]”, in the data set on G1498 siRNA, the “Bmax (Scatchard Analysis)” value worked out at 0.560 μMbound/μMfree, the “Kd (Scatchard Analysis)” value amounted to 0.250 µM⁻¹ and the “Max Bound siRNA” value was 48% mole %.
“Cys-Trp-His-(Lys)4-His-(Lys)4-His-Cys (CWHKKKKHKKKKHC) [NT-25]”: the Particle size entry in data set [2] is on record as “about 64.6 nm”.
“PEG10k-Mal-(Lys)15-amide ({PEG10k-Mal}-KKKKKKKKKKKKKKK-NH2) [PN0931-2]”: in the data set with G1498 siRNA, the “Bmax (Scatchard Analysis)” value came to 0.992 μMbound/μMfree, the “Kd (Scatchard Analysis)” value was 0.130 µM⁻¹ and the “Max Bound siRNA” value stood at 47% mole %.
For the substance Cys-Trp-(Lys)6-Cys (CWKKKKKKC) [NT-19], the “Knockdown of gene expression” value in the data set on Lac-Z was “about 27%”. The Uptake entry with 9L/LacZ cells [1] is listed as “good uptake”. Besides, the Particle size result in data set [2] was “about 78.7 nm”. Moreover, the “Toxicity (total protein expression)” value in the data set on 9L/LacZ cells [3] was “no apparent toxicity”.
